# Test system: WAP-TGFα tumors
# Assay: Immune profiling FACS analysis of WAP-TGFα tumors
# Assay type: in vivo, mouse
# Settings: 3 treated tumors; preliminary FACS
# Protocol: Preliminary immune profiling FACS analysis performed with the markers described in Example 1.
# To begin to evaluate how these changes indicated by NanoString represented the immune microenvironment of these tumors, Immune Profiling was performed. […] When tumors had regressed to ˜100 mm^3 (after 1-2 weeks of treatment), tumor were excised, treated with collagenase and analyzed by FACS, using a 17-antibody panel to determine cell types present. Data was analyzed by first selecting for CD45+ cells to isolate leukocytes, then further gated based on markers specific to cells of both the adaptive and innate immune system. This preliminary analysis was done with 3 cSNX1.3-treated tumors, and the internal positive control of one spleen. […]
# Immune Profiling: Tissues are digested and analyzed by FACS for the following immune markers: CD45 (lymphocytes), CD4 (helper T cells) CD3 (Pan T cell), CD25 (Activated T cells), CD8a (cytotoxic T cells), Ly6G (G-Myeloid Derived Suppressor Cells (MDSC), CD11 b (MDSC), Ly6C (M-M DSC), CD11C (Dendritic Cells), F4/80 (Macrophages), Granzyme B (Natural Killer (NK) and CD8 T cells), Arginase 1 (MDSC), Perforin (NK and CD8 Tcells), iNos (macrophages), TNFα (pro inflammatory cytokine), INFy (pro inflammatory cytokine), FoxP3 (Treg). The samples are run on a Cytek Aurora full spectrum flow cytometer and are optimized for the mouse tissues (FIG. 10). […]
compound,measurement,value
CC[C@H](C)[C@H](NC(=O)[C@@H](NC(=O)[C@H](Cc1c[nH]cn1)NC(=O)[C@H](CC(N)=O)NC(=O)[C@H](CCCCN)NC(=O)[C@H](C)NC(=O)[C@H](CCCNC(=N)N)NC(=O)[C@H](C)NC(=O)[C@H](CCC(N)=O)NC(=O)[C@H](CCCNC(=N)N)NC(=O)[C@H](C)NC(=O)[C@H](C)NC(=O)[C@H](C)NC(=O)[C@H](CCCNC(=N)N)NC(=O)[C@H](C)NC(=O)[C@H](Cc1ccc(O)cc1)NC(C)=O)C(C)C)C(=O)N[C@@H](CCCCN)C(=O)N[C@@H](Cc1ccc(O)cc1)C(=O)N[C@@H](CC(C)C)C(=O)N[C@@H](CCC(=O)O)C(=O)N[C@H](C(=O)N[C@@H](CC(C)C)C(=O)N[C@@H](CC(C)C)C(=O)N[C@@H](Cc1ccc(O)cc1)C(=O)N[C@@H](CO)C(=O)N[C@@H](CCC(N)=O)C(=O)N[C@@H](CCC(N)=O)C(=O)N[C@@H](CCC(N)=O)C(=O)N[C@@H](CC(C)C)C(=O)N[C@@H](C)C(=O)N[C@@H](CCCCN)C(=O)N[C@@H](Cc1ccc(O)cc1)C(=O)N[C@@H](Cc1c[nH]c2ccccc12)C(=O)N[C@@H](CCC(=O)O)C(=O)N[C@@H](C)C(=O)N[C@@H](Cc1ccccc1)C(=O)N[C@@H](CC(C)C)C(N)=O)[C@@H](C)O [cSNX1.3],CTLs in tumors,Abundant
same,M1 macrophages over M2 macrophages (M1/M2 ratio),high and increase

# Reference: patent US20240166702A1, “COMPOSITIONS AND METHODS FOR TREATING BREAST CANCER” (Arizona Board of Regents on Behalf of The University of …, priority 2021, published 2024)
